This note sets out measurements from US10206394B2, “Herbicidal compounds” (Syngenta Participations AG, priority 2014, dated 2019).

SMILES strings stand for the structures. Like-named read-outs stand apart in the source and are kept apart here.

What all share (assay): Glasshouse assay for herbicidal activity (pre- and post-emergence), percentage phytotoxicity
Type in all cases: in vivo

The test system of assay [1] is Alopecurus myosuroides (ALOMY). The note with it: Alopecurus myosuroides. In a few lines: (§1)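 Potted test plants in standard soil received the compound pre-emergence (day 1) or post-emergence (about day 12). Evaluation: visual damage score from 0% (none) to 100% (total), 15 days after application post-emergence, 20 days pre-emergence.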
The test system of another assay is Avena fatua (AVEFA). The note with it: Avena fatua. In a few lines: as §1
The test system of assay [2] is Echinochloa crus-galli (ECHCG). The note with it: Echinochloa crus-galli. In outline: as §1
A further assay deals with Lolium perenne (LOLPE). The note with it: Lolium perenne. In outline: as §1
Where [3] appears, read: post-emergence, 360 h, POST-emergence, rate 250 g/ha, visual score 15 DAA (100%=total damage, 0%=no damage), read-out: Post-emergence herbicidal activity (percentage phytotoxicity) ALOMY POST.
The mark [4] stands for this setting: pre-emergence, 480 h, PRE-emergence, rate 250 g/ha, visual score 20 DAA (100%=total damage, 0%=no damage), read-out: Pre-emergence herbicidal activity (percentage phytotoxicity) ALOMY PRE.
Setting [5] is: post-emergence, 360 h, POST-emergence, rate 250 g/ha, visual score 15 DAA (100%=total damage, 0%=no damage), read-out: Post-emergence herbicidal activity (percentage phytotoxicity) AVEFA POST.
[6] abbreviates: pre-emergence, 480 h, PRE-emergence, rate 250 g/ha, visual score 20 DAA (100%=total damage, 0%=no damage), read-out: Pre-emergence herbicidal activity (percentage phytotoxicity) AVEFA PRE.
Where [7] appears, read: post-emergence, 360 h, POST-emergence, rate 250 g/ha, visual score 15 DAA (100%=total damage, 0%=no damage), read-out: Post-emergence herbicidal activity (percentage phytotoxicity) ECHCG POST.
Setting [8] is: pre-emergence, 480 h, PRE-emergence, rate 250 g/ha, visual score 20 DAA (100%=total damage, 0%=no damage), read-out: Pre-emergence herbicidal activity (percentage phytotoxicity) ECHCG PRE.
The mark [9] stands for this setting: post-emergence, 360 h, POST-emergence, rate 250 g/ha, visual score 15 DAA (100%=total damage, 0%=no damage), read-out: Post-emergence herbicidal activity (percentage phytotoxicity) LOLPE POST.
Setting [10] is: pre-emergence, 480 h, PRE-emergence, rate 250 g/ha, visual score 20 DAA (100%=total damage, 0%=no damage), read-out: Pre-emergence herbicidal activity (percentage phytotoxicity) LOLPE PRE.
Setting [11] is: post-emergence, 360 h, Rate 250 g/ha, post-emergence, assessed visually 15 DAA, 100%=total damage, 0%=no damage, read-out: Post-emergence herbicidal activity (percentage phytotoxicity) ALOMY POST.
Setting [12] is: pre-emergence, 480 h, Rate 250 g/ha, pre-emergence, assessed visually 20 DAA, 100%=total damage, 0%=no damage, read-out: Pre-emergence herbicidal activity (percentage phytotoxicity) ALOMY PRE.
The mark [13] stands for this setting: post-emergence, 360 h, Rate 250 g/ha, post-emergence, assessed visually 15 DAA, 100%=total damage, 0%=no damage, read-out: Post-emergence herbicidal activity (percentage phytotoxicity) AVEFA POST.
[14] abbreviates: pre-emergence, 480 h, Rate 250 g/ha, pre-emergence, assessed visually 20 DAA, 100%=total damage, 0%=no damage, read-out: Pre-emergence herbicidal activity (percentage phytotoxicity) AVEFA PRE.
Setting [15] is: post-emergence, 360 h, Rate 250 g/ha, post-emergence, assessed visually 15 DAA, 100%=total damage, 0%=no damage, read-out: Post-emergence herbicidal activity (percentage phytotoxicity) ECHCG POST.
[16] abbreviates: pre-emergence, 480 h, Rate 250 g/ha, pre-emergence, assessed visually 20 DAA, 100%=total damage, 0%=no damage, read-out: Pre-emergence herbicidal activity (percentage phytotoxicity) ECHCG PRE.
The mark [17] stands for this setting: post-emergence, 360 h, Rate 250 g/ha, post-emergence, assessed visually 15 DAA, 100%=total damage, 0%=no damage, read-out: Post-emergence herbicidal activity (percentage phytotoxicity) LOLPE POST.
Where [18] appears, read: pre-emergence, 480 h, Rate 250 g/ha, pre-emergence, assessed visually 20 DAA, 100%=total damage, 0%=no damage, read-out: Pre-emergence herbicidal activity (percentage phytotoxicity) LOLPE PRE.

Turning to `Cc1cc(-c2ccc(Br)cn2)cc(C)c1C1C(=O)CC(CC(=O)NC(C)(C)C)C1=O` (stereo not drawn) [Compound B322], the pest or weed control at 250 g/ha stood at 100% in assay [1] (setting [3]); 90% in assay [1] (setting [4]); 100% with Avena fatua (AVEFA) (setting [5]); 70% with Avena fatua (AVEFA) (setting [6]); 100% in assay [2] (setting [7]); 90% in assay [2] (setting [8]). For the same molecule, the results for the pest or weed control at 250 g/ha in the assay with Lolium perenne (LOLPE) (setting [9]) and in the assay on Lolium perenne (LOLPE) (setting [10]) were 100% and 90%, respectively.

In the case of `CCc1cc(-n2cc(Cl)cn2)cc(C)c1C1C(=O)CC(CC(=O)NCc2ccc(OC)cc2)C1=O` (stereo not drawn) [Compound B233], the pest or weed control at 250 g/ha in assay [1] (setting [3]) came out at 60%; in assay [1] (setting [4]), 70%; in the assay on Avena fatua (AVEFA) (setting [5]), 70%; with Avena fatua (AVEFA) (setting [6]), 60%; in assay [2] (setting [7]), 100%; in assay [2] (setting [8]), 70%. For the same molecule, the pest or weed control at 250 g/ha in the assay with Lolium perenne (LOLPE) (setting [9]) and with Lolium perenne (LOLPE) (setting [10]) was 70% each time.

As for `CCNC(=O)CC1CC(=O)C(c2c(C)cc(-c3ncc(C#N)cn3)cc2C)C1=O` (stereo not drawn) [Compound B286], the pest or weed control at 250 g/ha was determined as 100% in assay [1] (setting [3]); 100% in assay [1] (setting [4]); 100% in the assay on Avena fatua (AVEFA) (setting [5]); 90% in the assay with Avena fatua (AVEFA) (setting [6]); 100% in assay [2] (setting [7]); 100% in assay [2] (setting [8]). Besides, the pest or weed control at 250 g/ha with Lolium perenne (LOLPE) (setting [9]) turned out to be 100%; in the assay with Lolium perenne (LOLPE) (setting [10]) it was 90%.

On to `Cc1cc(-c2ncc(C#N)cn2)cc(C)c1C1C(=O)CC(CC(=O)NCc2cccc(Cl)c2)C1=O` (stereo not drawn) [Compound B284], for which the pest or weed control at 250 g/ha in assay [1] (setting [3]) is 100%; in assay [1] (setting [4]) it was 100%; in the assay on Avena fatua (AVEFA) (setting [5]) it was 100%; with Avena fatua (AVEFA) (setting [6]) it was 70%; in assay [2] (setting [7]), 100%; in assay [2] (setting [8]) it was 100%. Also, the results for the pest or weed control at 250 g/ha in the assay on Lolium perenne (LOLPE) (setting [9]) and with Lolium perenne (LOLPE) (setting [10]) were 100% and 90%, respectively.

`CCc1cc(C)cc(C)c1C1C(=O)CC(CC(=O)N(C)C(C)(C)C)C1=O` (stereo not drawn) [Compound B259]: the pest or weed control at 250 g/ha in assay [1] (setting [3]) was determined as 100%; in assay [1] (setting [4]), 100%; in the assay with Avena fatua (AVEFA) (setting [5]) it was 100%; with Avena fatua (AVEFA) (setting [6]), 90%; in assay [2] (setting [7]) it was 100%; in assay [2] (setting [8]), 100%. Also, the pest or weed control at 250 g/ha with Lolium perenne (LOLPE) (setting [9]) and with Lolium perenne (LOLPE) (setting [10]) was 100% each time.

`Cc1cc(C)c(C2C(=O)CC(CC(=O)NCc3ccccc3F)C2=O)c(C)c1` (stereo not drawn) [Compound A110]: the pest or weed control at 250 g/ha in assay [1] (setting [11]) was determined as 60%; in assay [1] (setting [12]), 70%; with Avena fatua (AVEFA) (setting [13]), 70%; in the assay on Avena fatua (AVEFA) (setting [14]), 50%; in assay [2] (setting [15]) it was 80%; in assay [2] (setting [16]), 90%. For the same molecule, the pest or weed control at 250 g/ha in the assay with Lolium perenne (LOLPE) (setting [17]) worked out at 80%; in the assay on Lolium perenne (LOLPE) (setting [18]), 100%.

Take `C#CCNC(=O)CC1CC(=O)C(c2c(C)cc(-n3cc(Cl)cn3)cc2C)C1=O` (stereo not drawn) [Compound B317]: the pest or weed control at 250 g/ha in assay [1] (setting [3]) came out at 100%; in assay [1] (setting [4]), 90%; in the assay on Avena fatua (AVEFA) (setting [5]), 100%; with Avena fatua (AVEFA) (setting [6]), 90%; in assay [2] (setting [7]), 100%; in assay [2] (setting [8]), 100%. In addition, the pest or weed control at 250 g/ha in the assay on Lolium perenne (LOLPE) (setting [9]) and in the assay with Lolium perenne (LOLPE) (setting [10]) was 90% throughout.

For the molecule `COCC(C)(C)NC(=O)CC1CC(=O)C(c2c(C)cc(-c3ncc(Cl)cc3F)cc2C)C1=O` (stereo not drawn) [Compound B325], the pest or weed control at 250 g/ha in assay [1] (setting [3]) worked out at 100%; in assay [1] (setting [4]) it was 100%; in the assay with Avena fatua (AVEFA) (setting [5]) it was 100%; with Avena fatua (AVEFA) (setting [6]), 70%; in assay [2] (setting [7]), 100%; in assay [2] (setting [8]), 100%. Moreover, the pest or weed control at 250 g/ha in the assay on Lolium perenne (LOLPE) (setting [9]) and in the assay on Lolium perenne (LOLPE) (setting [10]) was 100% in each case.

As to `COCC(C)NC(=O)CC1CC(=O)C(c2c(C)cc(-c3ncc(F)cn3)cc2C)C1=O` (stereo not drawn) [Compound B332], the pest or weed control at 250 g/ha (in assay [1] (setting [3]); in assay [1] (setting [4]); in the assay with Avena fatua (AVEFA) (setting [5]); with Avena fatua (AVEFA) (setting [6]); in assay [2] (setting [7]); in assay [2] (setting [8])) was 100% in each case. Further, the pest or weed control at 250 g/ha in the assay with Lolium perenne (LOLPE) (setting [9]) and in the assay on Lolium perenne (LOLPE) (setting [10]) was 100% each time.

On to `Cc1cc(-c2ncc(Cl)cc2F)cc(C)c1C1C(=O)CC(CC(=O)NCc2ccc(OC(F)(F)F)cc2)C1=O` (stereo not drawn) [Compound A121], for which the pest or weed control at 250 g/ha in assay [1] (setting [11]) stood at 100%; in assay [1] (setting [12]) it was 90%; in the assay with Avena fatua (AVEFA) (setting [13]) it was 100%; in the assay with Avena fatua (AVEFA) (setting [14]) it was 90%; in assay [2] (setting [15]), 100%; in assay [2] (setting [16]) it was 90%. Moreover, the pest or weed control at 250 g/ha was found to be 100% with Lolium perenne (LOLPE) (setting [17]) and 80% with Lolium perenne (LOLPE) (setting [18]).

Consider `CCc1cc(-n2cc(Cl)cn2)cc(C)c1C1C(=O)CC(CC(=O)NC(C)C)C1=O` (stereo not drawn) [Compound B235], for which the pest or weed control at 250 g/ha (in assay [1] (setting [3]); in assay [1] (setting [4]); with Avena fatua (AVEFA) (setting [5]); with Avena fatua (AVEFA) (setting [6]); in assay [2] (setting [7]); in assay [2] (setting [8])) was 100% in each case. Moreover, the pest or weed control at 250 g/ha in the assay on Lolium perenne (LOLPE) (setting [9]) and in the assay with Lolium perenne (LOLPE) (setting [10]) was 100% throughout.

For the molecule `Cc1cc(-c2ncc(F)cc2F)cc(C)c1C1C(=O)CC(CC(=O)NCc2cccc(C(F)(F)F)c2)C1=O` (stereo not drawn) [Compound B88], the pest or weed control at 250 g/ha in assay [1] (post-emergence, 360 h, 250 g/ha, post-emergence, 15 DAA, visual assessment (100%=total damage, 0%=no damage), read-out: Post-emergence herbicidal activity (percentage phytotoxicity) ALOMY POST) was determined as 100%; in assay [1] (pre-emergence, 480 h, 250 g/ha, pre-emergence, 20 DAA, visual assessment (100%=total damage, 0%=no damage), read-out: Pre-emergence herbicidal activity (percentage phytotoxicity) ALOMY PRE), 90%; in the assay with Avena fatua (AVEFA) (post-emergence, 360 h, 250 g/ha, post-emergence, 15 DAA, visual assessment (100%=total damage, 0%=no damage), read-out: Post-emergence herbicidal activity (percentage phytotoxicity) AVEFA POST) it was 100%; in the assay on Avena fatua (AVEFA) (pre-emergence, 480 h, 250 g/ha, pre-emergence, 20 DAA, visual assessment (100%=total damage, 0%=no damage), read-out: Pre-emergence herbicidal activity (percentage phytotoxicity) AVEFA PRE), 70%; in assay [2] (post-emergence, 360 h, 250 g/ha, post-emergence, 15 DAA, visual assessment (100%=total damage, 0%=no damage), read-out: Post-emergence herbicidal activity (percentage phytotoxicity) ECHCG POST), 100%; in assay [2] (pre-emergence, 480 h, 250 g/ha, pre-emergence, 20 DAA, visual assessment (100%=total damage, 0%=no damage), read-out: Pre-emergence herbicidal activity (percentage phytotoxicity) ECHCG PRE) it was 90%. The pest or weed control at 250 g/ha in the assay with Lolium perenne (LOLPE) (post-emergence, 360 h, 250 g/ha, post-emergence, 15 DAA, visual assessment (100%=total damage, 0%=no damage), read-out: Post-emergence herbicidal activity (percentage phytotoxicity) LOLPE POST) is 100%; in the assay with Lolium perenne (LOLPE) (pre-emergence, 480 h, 250 g/ha, pre-emergence, 20 DAA, visual assessment (100%=total damage, 0%=no damage), read-out: Pre-emergence herbicidal activity (percentage phytotoxicity) LOLPE PRE) it was 90%.
